# Source: US12467038B2, “Methods of culturing human pluripotent cells” (Hadasit Medical Research Services and Development Ltd., priority 2019, dated 2025)
# Legend:
# Format in all cases: cell-based, human
# LN-hPSCs [1] = assay: Immunofluorescence staining after WNT activation; conditions: upon WNT activation with CHIR
# Procedure: (§1) Signaling pathways analysis—hPSCs were cultured on LN111 for 2 days in complete medium, and then for additional 3-5 days in a medium+/−FGF2 in the presence of the following small molecules: PD032590 1 μM (Peprotech), LY294002 10 μM, SB431542 10 μM, CHIR99021 3 μM (all from Cayman Chemical, Michigan, USA), XAV939 2.5 μM (Peprotech), BMP4 50 ng/ml (Biogems-Peprotech).
# Immunofluorescence staining: 4-6 day hESC colonies were fixed with 4% paraformaldehyde for 20 min at RT, permeabilized and blocked with 0.2% Triton X100 (Sigma-Aldrich), 5% normal goat/donkey serum (Biological industries, Beit Haemek, Israel) in PBS for 45 min, and incubated 1 hour at RT with the following primary antibodies: mouse IgG2b anti-human Oct4 (1:50; Cat. No. SC5279, Santa Cruz Biotechnology Inc., USA), goat polyclonal IgG anti-human FGF5 (1:250; Cat. No. AF-237-NA, R&D Systems, Minneapolis, Minn., USA), Rabbit polyclonal IgG anti-GFP (1:250; Cat. No. A11122, Invitrogen), goat polyclonal IgG anti-Brachyury (1:150; Cat. No. AF-2085, R&D Systems), and goat polyclonal IgG anti-human OTX2 (1:50; Cat. No. AF-1979, R&D Systems). […]
# LN-hPSCs [2] = assay: Signaling pathways analysis, Real-Time PCR of marker expression
# Procedure: as §1
# (§2) Real Time PCR analysis—A relative gene expression quantitation assay was performed by amplification of 50 ng cDNA by Real Time PCR, using ABI Prism 7900HT Sequence Detection System (Applied Biosystems (ABI), Foster City, Calif.), specific TaqMan® Gene Expression Assays and TaqMan Fast Universal PCR master Mix. Human β-glucuronidase (gusB) or human β-actin (actB) were used as endogenous gene references. Data was analyzed using the RQ Manager Software v1.2 (ABI). For global expression analysis of pluripotency and differentiation associated genes, 200 ng cDNA were subjected to Real Time PCR amplification using Applied Biosystems® TaqMan® Human Stem Cell Pluripotency Array (Cat. No. 4385344), and Taqman Gene Expression Master Mix. Array data was analyzed using the DataAssist Software v2.0 (ABI).
# as §1, with “analysis-hPSCs” for “analysis—hPSCs”
# as §2, with “of 25-50” for “of 50”, “by Real-Time” for “by Real Time”, “and TaqMan®” for “and TaqMan”, “PCR Master Mix (All from Invitrogen).” for “PCR master Mix.”, “to Real-time” for “to Real Time”
# LN-hPSCs [3] = assay: Signaling pathways analysis, phase-contrast colony morphology
# Procedure: as §1
# as §1, with “analysis-hPSCs” for “analysis—hPSCs”
# hPSCs = assay: Undifferentiated propagation and PGC differentiation of hPSCs on laminin; conditions: HES-1 hPSCs
# Procedure: LN-hPSCs were cultured on mouse LN111, 3-D Culture Matrix Laminin I (CULTREX, TREVIGEN, #3446-005-01, Gaithersburg, Md., USA). 0.175 ml diluted LN111 (1:14 to a coating concentration of 0.43 mg/ml) was used to coat a well of a 6-well culture dish, leaving a margin of 2-3 mm at the well edge (a final concentration of ˜8 microgram/cm^2). The coated dishes were incubated from 4 hours to 4 days, at 37° C., and washed with PBS before use. LN-hPSCs were cultured in a medium composed of DMEM/F12, B27 supplement (1:50), N2 supplement (1:100), 2 mM L-glutamine, 50 units/ml penicillin, 50 μg/ml streptomycin (all from Invitrogen), and supplemented daily with 20 ng/ml FGF2 (Peprotech). Cells were passaged every 5-6 days using 1.5 mg/ml collagenase type IV (Invitrogen). 5 μM ROCK inhibitor (Y-27632, Peprotech) was added for the first day after passaging.
# hPSCs were cultured on human recombinant LN521 (BIOLAMINA, Sundbyberg, Sweden). Coating of culture dishes with hrLN521 was performed according to the manufacturer's instructions (Coating concentration ˜0.45 microgram/cm^2). Cells were cultured in the same medium used for culturing LN-hPSCs, and passaged with collagenase type IV.
# PGC differentiation of hPSCs in suspension—LN-hPSCs and hPSCs cultured on hrLN-521 were dissociated into a single-cell suspension using TrypLE Select Enzyme (Invitrogen). Primed hPSCs were first dissociated from the MEF feeders by treatment with collagenase type IV, followed by dissociation into single cells by TrypLE Select Enzyme. 2000-3000 cells were seeded into a microwell of AggreWell™800 24-well plate (STEMCELL Technologies), and cultured as EBs in suspension, in PGCLC differentiation medium as described elsewhere (Irie et al., 2015).
# LN-hPSCs [4] = assay: FACS analysis of pluripotency cell-surface markers; conditions: basic medium supplemented with FGF2, XAV939 2.5 μM
# Procedure: Signaling pathways analysis—hPSCs were cultured on LN111 for 2 days in complete medium, and then for additional 3-5 days in a medium+/−FGF2 in the presence of the following small molecules: PD032590 1 μM (Peprotech), LY294002 10 μM, SB431542 10 μM, CHIR99021 3 μM (all from Cayman Chemical, Michigan, USA), XAV939 2.5 μM (Peprotech), BMP4 50 ng/ml (Biogems-Peprotech). FACS analysis—FACS analyses were performed using the following primary antibodies: mouse IgM anti-TRA-1-60 (1:100; mab4360, R&D), and mouse IgM anti-TRA-1-81 (1:100; mab4381, R&D), and Rat IgM anti-SSEA-3. Staining with respective isotype control antibodies (all from eBiosciences) served as controls. Detection of primary antibodies was performed using the following secondary antibodies: FITC-conjugated Polyclonal Goat Anti-Mouse Immunoglobulins (1:100; Dako, Glostrup, Denmark), APC-conjugated Goat anti-Mouse IgM/G (1:200; Cat. No. 1020-11, SouthernBiotech, Birmingham, Ala., USA), and APC-conjugated anti-Rat (1:200; eBioscience). FACS analysis was performed on a FACScalibur system (Becton-Dickinson, San Jose, Calif.) using the Cellquest software. A detailed FACS procedure is described elsewhere. FACS analysis—FACS analyses for pluripotency marker expression were performed using mouse anti-TRA-1-60 (1:100; mab4360, R&D), and mouse anti-TRA-1-81 (1:100; mab4381, R&D). […]
# [5] = medium depleted for FGF2, in the presence of the inhibitor, five days
molecule,measurement,setting,value
"Cc1c[nH]c(-c2cnc(NCCNc3ccc(C#N)cn3)nc2-c2ccc(Cl)cc2Cl)n1 [CHIR, CHIR99021]",T-positive cells (immunostaining),LN-hPSCs [1],expressed in the majority of the cells
same,"expression of PS and mesendodermal markers T, SOX17, and GSC",LN-hPSCs [2]; 3 days in the presence of CHIR,up-regulation
same,"expression of core pluripotency TFs Oct4, Nanog and SOX2 as well as OTX2",LN-hPSCs [2]; 3 days in the presence of CHIR,down-regulation
same,expression of early ecdodermal marker PAX6,LN-hPSCs [2]; 3 days in the presence of CHIR,down-regulated
same,LN-hPSC colony morphology,LN-hPSCs [3]; 3 days in the presence of CHIR,appeared differentiated
NC(=O)c1ccc(-c2nc(-c3ccc4c(c3)OCO4)c(-c3ccccn3)[nH]2)cc1 [SB431542],Oct4 and Nanog expression levels,LN-hPSCs [2]; FGF2 depleted from the medium,strongly reduced
same,Nanog expression,"LN-hPSCs [2]; medium containing FGF2, 5 d",drastically reduced
same,Oct4 levels,"LN-hPSCs [2]; medium containing FGF2, 5 d",moderately down-regulated
same,colony morphology,LN-hPSCs [3]; FGF2 depleted from the medium,the colonies including the margins differentiated
same,colony morphology,"LN-hPSCs [3]; medium containing FGF2, 5 d",appeared differentiated
"hrLN521: human recombinant LN521 (BIOLAMINA), coating of culture dishes",competence to initiate germ cell specification,hPSCs,competent to initiate germ cell specification
same,undifferentiated propagation of hPSCs expressing markers of pluripotency and early post-implantation epiblast,hPSCs,supports the undifferentiated propagation
O=C(NOC[C@H](O)CO)c1ccc(F)c(F)c1Nc1ccc(I)cc1F [PD032590],Oct4 and Nanog expression levels,LN-hPSCs [2]; [5],significant down-regulation
same,differentiation as evidenced by changes in cell morphology,LN-hPSCs [3]; [5],Differentiation was observed
"BMP4: BMP4 50 ng/ml (Biogems-Peprotech), conserved role in germ cell specification",expression of early PGC TFs PRDM1 (BLIMP1) and TFAP2C,LN-hPSCs [2]; BMP4 treatment,induced the expression
same,expression of formative pluripotency TFs OTX2 and FOXD3,LN-hPSCs [2]; BMP4 treatment,down-regulation
Oc1nc(-c2ccc(C(F)(F)F)cc2)nc2c1CSCC2 [XAV939],percentages of cells expressing TRA-1-60,LN-hPSCs [4],did not affect
same,LN-hPSC colonies morphology,"LN-hPSCs [3]; basic medium supplemented with FGF2, XAV939 2.5 μM",did not affect
